Assay results from patent US20230098667A1, “BENZODIAZEPINE DERIVATIVES, COMPOSITIONS, AND METHODS FOR TREATING COGNITIVE IMPAIRMENT” (priority 2019, published 2023).
pKi: −log10 of the molar value. Entries after “also recorded” stand apart in the source; their conditions may differ. Like-named read-outs stand apart in the source and are kept apart here.

What was measured:
[1] = target: T1, GABAA receptors α5β3γ2 (GABA α5) (Homo sapiens, UniProt P18507+P31644); assay: Binding activity on GABAAR: inhibition of [3H]Ro15-1788 binding, membranes of Ltk cells; conditions: α5β3γ2 Ltk cell membranes
T1 construct: membranes
T1 sequence (P31644 32-462): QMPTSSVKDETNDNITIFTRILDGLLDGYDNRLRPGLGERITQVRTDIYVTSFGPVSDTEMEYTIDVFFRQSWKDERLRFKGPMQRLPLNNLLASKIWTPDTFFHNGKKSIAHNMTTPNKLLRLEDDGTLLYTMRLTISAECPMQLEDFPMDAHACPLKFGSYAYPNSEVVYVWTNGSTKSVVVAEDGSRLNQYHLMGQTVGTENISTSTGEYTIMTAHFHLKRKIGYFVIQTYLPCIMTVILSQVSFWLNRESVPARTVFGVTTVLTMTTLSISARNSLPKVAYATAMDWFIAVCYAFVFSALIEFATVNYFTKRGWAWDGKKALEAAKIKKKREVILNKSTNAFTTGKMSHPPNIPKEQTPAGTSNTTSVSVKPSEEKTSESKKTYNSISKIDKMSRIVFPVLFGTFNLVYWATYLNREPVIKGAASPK
T1 sequence (P28472 26-473 partner): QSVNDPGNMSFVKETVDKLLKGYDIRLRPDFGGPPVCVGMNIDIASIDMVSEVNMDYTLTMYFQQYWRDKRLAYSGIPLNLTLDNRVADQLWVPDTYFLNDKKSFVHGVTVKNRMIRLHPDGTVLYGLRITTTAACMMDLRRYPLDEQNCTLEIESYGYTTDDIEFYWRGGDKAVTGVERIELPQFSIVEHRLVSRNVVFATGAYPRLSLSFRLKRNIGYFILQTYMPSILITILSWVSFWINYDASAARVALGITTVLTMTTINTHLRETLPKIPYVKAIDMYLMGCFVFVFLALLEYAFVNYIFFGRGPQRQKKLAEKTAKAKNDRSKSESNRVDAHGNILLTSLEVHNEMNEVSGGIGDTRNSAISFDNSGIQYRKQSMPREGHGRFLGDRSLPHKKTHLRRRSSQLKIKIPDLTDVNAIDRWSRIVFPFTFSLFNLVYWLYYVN
T1 sequence (P18507 40-467 limits assumed): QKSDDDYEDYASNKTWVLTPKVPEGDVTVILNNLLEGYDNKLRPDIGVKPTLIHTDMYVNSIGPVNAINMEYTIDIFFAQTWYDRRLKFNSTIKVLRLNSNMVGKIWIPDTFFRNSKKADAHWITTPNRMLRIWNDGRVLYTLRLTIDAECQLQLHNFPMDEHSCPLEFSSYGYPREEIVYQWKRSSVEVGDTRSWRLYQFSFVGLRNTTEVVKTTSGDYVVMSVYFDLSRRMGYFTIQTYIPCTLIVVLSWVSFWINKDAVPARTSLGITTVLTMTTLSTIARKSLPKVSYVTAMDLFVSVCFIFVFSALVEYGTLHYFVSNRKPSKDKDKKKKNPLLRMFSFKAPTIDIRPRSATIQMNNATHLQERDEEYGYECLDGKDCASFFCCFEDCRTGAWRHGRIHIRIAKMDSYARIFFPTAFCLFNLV
Experimental: (§1) Tissue culture and Membrane Preparation: The binding was performed on Ltk cells stably expressing GABAA receptors: α1β1γ2, α2β3γ2, α3β3γ2 and α5β3γ2 (provided by Merck Co., NJ, USA). Cells were seeded in 100 mm culture plates in DMEM/F12 medium containing 10% serum and antibiotics in 5% CO2 and allowed to grow for 1-2 days. GABAAR expression was then induced by dexamethasone as follows: 0.5 μM for 1 day for α5 containing and 2 μM for 3 days for α1, α2 and α3 containing GABAARs. After induction, cells were collected by scraping into Dulbecco's Phosphate buffered saline (DPBS, pH 7.4, Invitrogen, Carlsbad, Calif., USA) and centrifuged at 150×g for 10 min. The pellet was washed twice by re-suspension and centrifugation. The cell pellets from at least 5 different preps were combined, suspended in the binding assay buffer (50 mM KH2PO4; 1 mM EDTA; 0.2 M KCl, pH 7.4) and membranes prepared by sonication (3-5 times, 30 sec) using Branson Sonifier 150 (G. Heinmann, Germany). Protein content was determined using BCA assay (Bio-Rad Labs, Reinach, Switzerland) with Bovine Serum Albumin (Sigma Aldrich, St. Louis, Mo., USA) as the standard. Aliquots were prepared and stored at −20° C. for further use in binding assays.
(§2) Ligand Binding: Saturation binding curves were obtained by incubating membranes with increasing concentrations (0.01-8 nM) of [^3H]Rol5-1788 (Flumazepil, 75-85 Ci/mmol, PerkinElmer, MA, USA), with nonspecific binding measured in the presence of 10 μM diazepam.
All binding assays were performed for 1 h at 4° C. in assay buffer. The total assay volume was 0.5 ml containing 0.2 mg/ml protein for α5 and 0.4 mg/ml for α1, α2, and α3 containing GABAAR membranes. Incubations were terminated by filtration through GF/B filters using a 24-Cell Harvestor (Brandel, Gaithersburg, Md., USA) followed by 3 washes with ice-cold assay buffer. Filters were transferred to scintillation vials, 5 ml scintillation liquid added, vortex-mixed and kept in dark. Next day, radioactivity was obtained using a scintillation counter (Beckman Coulter, Brea, Calif., USA). All assays were performed in triplicate.
Data Analyses: Saturation and inhibition curves were obtained using GraphPad Prism software (GraphPad Software, Inc., CA, USA).

[2] = tested on: GABA α5 versus GABA α1, GABA α2, or GABA α3; assay: Binding selectivity from [3H]Ro15-1788 binding on GABAAR subtypes
Experimental: as §1, with “The cell pellets from at least 5 different preps were combined, suspended in the binding assay buffer (50 mM KH2PO4; 1 mM EDTA; 0.2 M KCl, pH 7.4) and membranes prepared by sonication (3-5 times, 30 sec) using Branson Sonifier 150 (G. Heinmann, Germany).” left out, “Aliquots were prepared and stored at −20° C. for further use in binding assays.” left out
as §2
All binding assays were performed for 1 h at 4° C. in assay buffer. […] Next day, radioactivity was obtained using a scintillation counter (Beckman Coulter, Brea, Calif., USA). […]

GABAA receptors (α5β2γ2) = target: T2, GABAA receptors (α5β2γ2) (Homo sapiens, UniProt P18507+P31644); assay: Positive allosteric modulator activity: potentiation of EC20 GABA current in oocytes; assay type: cell-based; conditions: @ 100 nM
T2 construct: expressed in transfected cells
T2 sequence (P31644 32-462): T1 sequence (P31644 32-462)
T2 sequence (P47870 25-512 partner limits assumed): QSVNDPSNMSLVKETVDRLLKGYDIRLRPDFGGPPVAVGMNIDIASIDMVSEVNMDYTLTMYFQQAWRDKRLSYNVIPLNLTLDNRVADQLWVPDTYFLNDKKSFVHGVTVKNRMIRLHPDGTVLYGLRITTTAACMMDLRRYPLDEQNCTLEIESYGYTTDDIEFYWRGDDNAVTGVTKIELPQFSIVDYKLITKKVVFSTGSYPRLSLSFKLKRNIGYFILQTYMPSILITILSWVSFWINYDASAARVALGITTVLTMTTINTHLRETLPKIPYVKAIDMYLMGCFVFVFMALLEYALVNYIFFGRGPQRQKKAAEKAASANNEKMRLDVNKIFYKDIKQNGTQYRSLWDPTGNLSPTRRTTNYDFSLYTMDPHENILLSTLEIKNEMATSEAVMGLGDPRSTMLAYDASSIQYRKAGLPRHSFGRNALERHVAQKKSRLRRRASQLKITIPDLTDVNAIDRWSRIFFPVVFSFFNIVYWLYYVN
T2 sequence (P18507 40-467 limits assumed): T1 sequence (P18507 40-467 limits assumed)
Experimental: On day 1, 1 ng/32 nL of GABAA α5β2γ2 cDNA was injected into one oocyte. Test starts on day 2. The cDNA injected to the oocytes was a mix of alpha, beta and gamma, their ratio is 1:1:10 (by weight) and the total weight of the mixed 3 subunits to be injected in one oocyte was 1 ng in 32 nl volume. The injected oocytes can also be tested on day 3. In such case, the cDNA amount injected to the oocytes should be reduced by 20%.
1). 8 oocytes were placed in 8 chambers of OpusXpress and superfused with Modified Barth's Saline (MBS) at 3 mL/min. Glass electrodes back-filled with 3M KCl (0.5-3 megaohms) were used. […] 2). […] 3).
1). New oocytes were used to run new test. 2). […] 3). […] Oocytes were washed with MBS for 5-10 min. 4). […] Itest was divided by IGABA to obtain potentiation (%).
1). Repeat the above steps 1), 2) and 3) in the control test. 2). […] Divide Itest by IGABA to obtain potentiation (%). 3). Discard all tested oocytes, new oocytes were used and the above steps 1) and 2) were repeated to test second concentration of the same compound. Each oocyte was used for only one concentration test for a single test compound. The steps were repeated for other test compounds.

aged-impaired (AI) rats = assay: Radial Arm Maze (RAM) behavioral task, two-hour delay; assay type: in vivo, rat; conditions: 3 mg/kg ip
Experimental: The effects of methyl 3,5-diphenylpyridazine-4-carboxylate on the in vivo spatial memory retention of aged-impaired (AI) rats were assessed in a Radial Arm Maze (RAM) behavioral task using vehicle control and four different dosage levels of methyl 3,5-diphenylpyridazine-4-carboxylate (0.1 mg/kg, 0.3 mg/kg, 1 mg/kg and 3 mg/kg, ip). RAM behavioral tasks were performed on eight AI rats. All five treatment conditions (vehicle and four dosage levels) were tested on all eight rats.
The RAM apparatus used consisted of eight equidistantly-spaced arms. An elevated maze arm (7 cm width×75 cm length) projected from each facet of an octagonal center platform (30 cm diameter, 51.5 cm height). Clear side walls on the arms were 10 cm high and were angled at […] to form a trough. A food well (4 cm diameter, 2 cm deep) was located at the distal end of each arm. Froot Loops™ (Kellogg Company) were used as rewards. Blocks constructed of Plexiglas™ (30 cm height×12 cm width) could be positioned to prevent entry to any arm. Numerous extra maze cues surrounding the apparatus were also provided.
The AI rats were initially subjected to a pre-training test (Chappell et al. Neuropharmacology 37: 481-487, 1998). […]

GABAA α5 receptor = target: T3, GABAA α5 receptor (Rattus norvegicus, UniProt P19969); assay: GABAA α5 receptor occupancy with Ro 15-4513 tracer; assay type: in vivo, Long Evans rats
T3 construct: from tissue; host or cells: brain of living Long Evans rats; hippocampus and cerebellum dissected after i.v. dosing
Text: (§3) Food and water were available ad libitum.

[3] = assay type: in vivo, Long Evans rats
Experimental: as §3
For plasma exposures, blood samples were centrifuged at 14000 rpm for 16 minutes. After centrifuging, 50 ul of supernatant (plasma) from each sample was added to 200 μl of acetonitrile plus 0.1% formic acid. […] Samples were sonicated for 5 minutes in an ultrasonic water bath, followed by centrifugation for 30 minutes, at 16000 RPM. 100 ul of supernatant was removed from each sample vial and placed in a new glass auto sample vial, followed by the addition of 300 μl of sterile water (pH 6.5).
Additional studies were conducted in aged Long-Evans rats in order to determine the exposures at the behaviorally relevant doses in the cognition studies. Exposure in young Long-Evans rats was also determined to bridge with the receptor occupancy studies that were conducted in young Long-Evans rats. Exposures in young and aged Long-Evans rats were relatively similar (Table 4, FIG. 4).

α5-containing GABAA R = target: T4, α5-containing GABAA R (Homo sapiens, UniProt P18507+P31644); conditions: cited from earlier work
T4 sequence (P31644 32-462): T1 sequence (P31644 32-462)
T4 sequence (P28472 26-473 partner): T1 sequence (P28472 26-473 partner)
T4 sequence (P18507 40-467 limits assumed): T1 sequence (P18507 40-467 limits assumed)

T3 sequence (P19969 32-464 limits assumed): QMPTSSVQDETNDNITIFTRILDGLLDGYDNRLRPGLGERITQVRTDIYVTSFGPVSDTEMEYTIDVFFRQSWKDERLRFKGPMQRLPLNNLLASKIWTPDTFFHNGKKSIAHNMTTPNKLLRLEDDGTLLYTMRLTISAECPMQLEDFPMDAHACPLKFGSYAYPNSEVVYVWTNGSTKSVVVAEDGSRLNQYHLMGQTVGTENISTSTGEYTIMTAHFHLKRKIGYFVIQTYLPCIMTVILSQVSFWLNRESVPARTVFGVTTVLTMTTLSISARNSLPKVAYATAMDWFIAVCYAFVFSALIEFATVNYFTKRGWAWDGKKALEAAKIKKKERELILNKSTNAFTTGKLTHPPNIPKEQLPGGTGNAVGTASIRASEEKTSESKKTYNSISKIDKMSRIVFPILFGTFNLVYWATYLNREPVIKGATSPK

SMILES | pKi [1] | Binding selectivity for GABA α5 versus GABA α1, GABA α2, or GABA α3 [2] | GABA α5 functional potentiation (GABAA receptors (α5β2γ2)) | average no. of errors ± SEM in retention test (aged-impaired (AI) rats) | memory performance relative to vehicle control (aged-impaired (AI) rats) | effect on Ro 15-4513 binding in hippocampus and cerebellum (GABAA α5 receptor; 0.01-10 mg/kg, i.v.) | GABAA α5 receptors occupied in hippocampus (GABAA α5 receptor; at exposures behaviorally active in aged-impaired rats) | receptor occupancy depending on method (GABAA α5 receptor; exposure of 180 ng/g in hippocampus (1 mg/kg, i.v.)) | ED50 of receptor occupancy, ratio method (GABAA α5 receptor; i.v., ratio method) | receptor occupancy at 10 mg/kg (GABAA α5 receptor; rat, iv, 10 mg/kg) | increase in hippocampal exposure ([3]; dose from 0.1 to 1 mg/kg, i.v.) | increase in exposure in hippocampus and plasma ([3]; dose from 1 to 3 mg/kg, ip, young and aged rats) | increase in hippocampal exposure ([3]; dose from 1 to 10 mg/kg, i.v.) | increase in plasma exposure ([3]; dose from 1 to 10 mg/kg, i.v.) | α5 in vitro efficacy (EC20) (α5-containing GABAA R)
COc1ncc(C#Cc2ncn3c2Cc2cnnn2-c2cc(Cl)ccc2-3)cc1C(F)(F)F [Compound 733] | > 7.00 | >100-fold | – | – | – | – | – | – | – | – | – | – | – | – | –
COCc1nnn2c1Cc1c(C#Cc3cnc(C)[nH]3)ncn1-c1ccc(Cl)cc1-2 [Compound 739] | > 7.00 | – | >50% @ 100 nM | – | – | – | – | – | – | – | – | – | – | – | –
COC(=O)c1c(-c2ccccc2)cnnc1-c1ccccc1 [methyl 3,5-diphenylpyridazine-4-carboxylate] | – | – | – | 1.31±0.40 | significantly improved memory performance | blocked the binding of Ro154513 in the hippocampus but did not affect binding of Ro15413 in the cerebellum; also recorded: dose-dependently reduced Ro 15-4513 binding in hippocampus, without affecting cerebellum levels of Ro 15-4513 | about 32% | 32-39% | 1.8 mg/kg | > 90% | 12 fold | 4.5 to 6.6 fold | ~5 fold | 12 fold | +27
